Calls of active or inactive are those of the source. The calls are words filed in the database; no cut-off is given here.

From ChEMBL document CHEMBL4417632, “Inhibitors of alpha-amino-beta-carboxymuconic acid semialdehyde decarboxylase” (2017) come the findings set out here.

For data set [1], the target named is 2-amino-3-carboxymuconate-6-semialdehyde decarboxylase (Homo sapiens) (UniProt Q8TDX5). Description: Inhibition of ACMSD in human primary hepatocytes assessed as increase in NAD concentration at 250 uM following compound replacement every 24 hrs by LC-MS/MS analysis. Format: cell-based.
For data set [2] the target is unchanged. Description: Inhibition of ACMSD in human primary hepatocytes assessed as increase in NAD concentration at 0.5 uM following compound replacement every 24 hrs by LC-MS/MS analysis. Format: cell-based.
The target of data set [3] is 2-amino-3-carboxymuconate-6-semialdehyde decarboxylase (Mus musculus) (UniProt Q8R519). Description: Inhibition of ACMSD in mouse AML12 cells assessed as induction of SOD2 activity incubated for 24 hrs. Format: cell-based.
For data set [4] the target is unchanged. Description: Inhibition of ACMSD in C57BL/6J mouse primary hepatocytes assessed as induction of SOD2 activity incubated for 24 hrs. Format: cell-based.
The target is the same in data set [5]. As to the kind of experiment: Inhibition of ACMSD in mouse AML12 cells assessed as increase in Sod2 mRNA expression incubated for 24 hrs by RT-qPCR analysis. Format: cell-based.
A short description of data set [6]: Cytotoxicity in mouse AML-12 cells assessed as reduction inc ell viability at 10 nM to 300 uM incubated for 4 hrs by LDH release assay. It counts as cell-based.
The test system of the next data set is HepG2. As to the kind of experiment: Cytotoxicity against human HepG2 cells assessed as reduction in cell viability at 0.01 to 300 uM incubated for 4 hrs by LDH release assay. Format: cell-based. As to conditions: hepg2, 4 h. On the technique in general: LDH in the medium is a marker of cell lysis.
In data set [7] the target is 2-amino-3-carboxymuconate-6-semialdehyde decarboxylase (Mus musculus) (UniProt Q8R519). Description: Inhibition of ACMSD in mouse AML12 cells assessed as reduction in FoxO1 phosphorylation at Ser256 residue incubated for 24 hrs. It counts as cell-based.
The target of data set [8] is 2-amino-3-carboxymuconate-6-semialdehyde decarboxylase (Homo sapiens) (UniProt Q8TDX5). As to the kind of experiment: Inhibition of ACMSD in human primary hepatocytes assessed as increase in NAD\"\" concentration following compound replacement every 24 hrs by LC-MS/MS analysis relative to control. Format: cell-based.
Data set [9] addresses 2-amino-3-carboxymuconate-6-semialdehyde decarboxylase (Mus musculus) (UniProt Q8R519). As to the kind of experiment: Inhibition of ACMSD in C57BL/6J mouse primary hepatocytes assessed as increase in Pgc1a mRNA expression incubated for 24 hrs by RT-qPCR analysis. It counts as cell-based. On the technique in general: Quantitative PCR measures a nucleic acid by following its amplification.

Data set [10] has the same target. As to the kind of experiment: Inhibition of ACMSD in C57BL/6J mouse primary hepatocytes assessed as increase in Sod2 mRNA expression incubated for 24 hrs by RT-qPCR analysis. Format: cell-based.
Data set [11] has the same target. Description: Inhibition of ACMSD in C57BL/6J mouse primary hepatocytes assessed as increase in Sod1 mRNA expression incubated for 24 hrs by RT-qPCR analysis. It counts as cell-based.
The test system of data set [12] is MDCK. Description: Inhibition of cisplatin-induced apoptosis in MDCK cells assessed as reduction in caspase 3/7 activity at 100 uM pre-incubated for 1 hr before cisplatin challenge for 16 hrs by luminescence based assay. It counts as functional, cell-based. The settings on record: Canis lupus familiaris.
Data set [13] relates to MDCK. Description: Inhibition of cisplatin-induced apoptosis in MDCK cells assessed as reduction in caspase 3/7 activity at 30 to 125 uM pre-incubated for 1 hr before cisplatin challenge for 16 hrs by luminescence based assay. The settings on record: Canis lupus familiaris. It counts as functional, cell-based.
Data set [14] relates to MDCK. As to the kind of experiment: Inhibition of cisplatin-induced apoptosis in MDCK cells assessed as reduction in caspase 3/7 activity at 30 uM pre-incubated for 1 hr before cisplatin challenge for 16 hrs by luminescence based assay relative to control. It counts as functional. As to conditions: Canis lupus familiaris.
Data set [15] relates to MDCK. As to the kind of experiment: Inhibition of cisplatin-induced apoptosis in MDCK cells assessed as reduction in caspase 3/7 activity at 100 uM pre-incubated for 1 hr before cisplatin challenge for 16 hrs by luminescence based assay relative to control. Format: functional. As to conditions: Canis lupus familiaris.
In data set [16] the target is 2-amino-3-carboxymuconate-6-semialdehyde decarboxylase (Homo sapiens) (UniProt Q8TDX5). As to the kind of experiment: Inhibition of ACMSD in human primary hepatocytes assessed as increase in NAD concentration at 5 uM following compound replacement every 24 hrs by LC-MS/MS analysis. Format: cell-based.

2-amino-3-carboxymuconate-6-semialdehyde decarboxylase (Mus musculus), sequence (Q8R519 whole entry): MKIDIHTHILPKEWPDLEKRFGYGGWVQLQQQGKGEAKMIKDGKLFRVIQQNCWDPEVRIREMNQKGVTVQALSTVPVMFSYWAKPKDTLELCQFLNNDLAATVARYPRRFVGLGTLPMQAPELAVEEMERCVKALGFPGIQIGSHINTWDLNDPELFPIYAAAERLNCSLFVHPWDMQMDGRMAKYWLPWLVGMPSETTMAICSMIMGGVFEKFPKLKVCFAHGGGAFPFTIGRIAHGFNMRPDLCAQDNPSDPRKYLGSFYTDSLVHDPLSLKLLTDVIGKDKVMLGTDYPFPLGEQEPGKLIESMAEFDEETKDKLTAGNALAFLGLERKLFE
2-amino-3-carboxymuconate-6-semialdehyde decarboxylase (Homo sapiens), sequence (Q8TDX5 whole entry, looked up): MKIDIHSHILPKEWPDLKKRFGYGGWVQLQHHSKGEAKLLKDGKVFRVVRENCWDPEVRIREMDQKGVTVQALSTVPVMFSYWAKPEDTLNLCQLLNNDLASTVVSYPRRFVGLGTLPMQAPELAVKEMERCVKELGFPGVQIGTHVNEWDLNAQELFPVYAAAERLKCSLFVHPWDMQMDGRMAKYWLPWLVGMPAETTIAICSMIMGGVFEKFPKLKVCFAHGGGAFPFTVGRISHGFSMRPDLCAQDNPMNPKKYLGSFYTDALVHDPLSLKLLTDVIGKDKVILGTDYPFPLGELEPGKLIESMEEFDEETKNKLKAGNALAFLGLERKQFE

On to `CCCCC(CC)COC(=O)c1ccccc1C(=O)O` (stereo not drawn), for which the inhibition (in general, the share of the control response that was lost under treatment) in data set [1] was “Active”.

Consider `N#Cc1c(-c2ccccc2)nc(SCc2cccc(C(=O)O)c2)[nH]c1=O`, for which, in [2], the inhibition result was “Active”. For the same molecule, the inhibition entry in data set [3], in [4], in [5] and in data set [7] was “Dose-dependent effect” each time. Further, the Activity entry (in data set [6]; in the data set on HepG2) was “Non-Toxic” each time.

As to `N#Cc1c(-c2cccs2)nc(SCc2cccc(-c3nnn[nH]3)c2)[nH]c1=O`, the inhibition entry in data set [3], in data set [4], in data set [8], in data set [9], in [10] and in data set [7] was “Dose-dependent effect” throughout. Moreover, the inhibition result in data set [11] is “inactive”.

Consider `O=C(O)c1cccc(CSc2nc(-c3ccccc3)c(Br)c(=O)[nH]2)c1`, for which the Activity result (in [6]; with HepG2) was “Non-Toxic” each time.

`N#Cc1c(-c2cccs2)nc(SCc2cccc(-c3noc(=O)[nH]3)c2)[nH]c1=O`: the Activity entry (in data set [6]; with HepG2) was “Non-Toxic” throughout.

Consider `N#Cc1c(-c2cccs2)nc(SCc2cccc(CC(=O)O)c2)[nH]c1=O`, for which the inhibition result in the data set with MDCK [12] and in the data set with MDCK [13] was “Active” throughout. The inhibition at 30 µM in the data set on MDCK [14] turned out to be 29%. In the data set with MDCK [15], the inhibition at 100 µM was 75%.

For `N#Cc1c(-c2cccs2)nc(SCc2cccc(-c3nn[nH]n3)c2)[nH]c1=O`, the Activity result (in data set [6]; in the data set on HepG2) was “Non-Toxic” in each case.

Regarding `N#Cc1c(-c2nccs2)nc(SCc2cccc(C(=O)O)c2)[nH]c1=O`, the Activity entry (in data set [6]; in the data set on HepG2) was “Non-Toxic” each time.

Regarding `N#Cc1c(-c2ccc(Cl)cc2)nc(SCc2ccc(C(=O)O)cc2)[nH]c1=O`, the Activity result (in data set [6]; with HepG2) was “Non-Toxic” each time.

Turning to `N#Cc1c(-c2cccs2)nc(SCc2cccc(C(=O)O)c2)[nH]c1=O`, the inhibition result in data set [2] and in data set [16] was “Active” in each case. Besides, the Activity result (in data set [6]; in the data set on HepG2) was “Non-Toxic” throughout.
